Legend:
human orexin-2 receptor = biological target: T1, human orexin-2 receptor (Homo sapiens, UniProt O43614); test: radioligand binding assay, OX2 receptor (hOX2 Bind hKi); settings: membranes from CHO cells expressing the OX2 receptor
T1 construct: expressed in transfected cells; host or cells: CHO cells (membranes)
T1 sequence (O43614 1-444): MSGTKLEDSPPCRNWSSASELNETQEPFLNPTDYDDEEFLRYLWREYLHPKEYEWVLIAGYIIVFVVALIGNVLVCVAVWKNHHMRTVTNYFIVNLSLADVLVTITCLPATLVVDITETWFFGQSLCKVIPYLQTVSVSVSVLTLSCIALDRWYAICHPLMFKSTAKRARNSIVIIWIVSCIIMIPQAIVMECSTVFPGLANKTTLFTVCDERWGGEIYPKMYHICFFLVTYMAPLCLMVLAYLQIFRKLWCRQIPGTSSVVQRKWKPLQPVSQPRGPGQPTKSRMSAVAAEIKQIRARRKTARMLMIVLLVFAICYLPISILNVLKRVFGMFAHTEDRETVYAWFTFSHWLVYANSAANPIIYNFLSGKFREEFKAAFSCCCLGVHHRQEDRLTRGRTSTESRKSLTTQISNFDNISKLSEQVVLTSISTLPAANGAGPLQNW
Procedure: The utility of the compounds in accordance with the present invention as orexin receptor OX1R and/or OX2R antagonists may be readily determined without undue experimentation by methodology well known in the art, including the “FLIPR Ca^2+ Flux Assay” (Okumura et al., Biochem. Biophys. Res. Comm. 280:976-981, 2001). In a typical experiment the OX1 and OX2 receptor antagonistic activity of the compounds of the present invention was determined in accordance with the following experimental method. For intracellular calcium measurements, Chinese hamster ovary (CHO) cells expressing the rat orexin-1 receptor or the human orexin-2 receptor, are grown in Iscove's modified DMEM containing 2 mM L-glutamine, […], 1% hypoxanthine-thymidine supplement, 100 U/ml penicillin, 100 μg/ml streptomycin and 10% heat-inactivated fetal calf serum (FCS). The cells are seeded at 20,000 cells/well into Becton-Dickinson black 384-well clear bottom sterile plates coated with poly-D-lysine. All reagents were from GIBCO-Invitrogen Corp. The seeded plates are incubated overnight at 37° C. and 5% CO2. Ala-6,12 human orexin-A as the agonist is prepared as a 1 mM stock solution in 1% bovine serum albumin (BSA) and diluted in assay buffer (HBSS containing 20 mM HEPES, 0.1% BSA and 2.5 mM probenecid, pH7.4) for use in the assay at a final concentration of 70 pM. Test compounds are prepared as 10 mM stock solution in DMSO, then diluted in 384-well plates, first in DMSO, then assay buffer. On the day of the assay, cells are washed 3 times with 100 μl assay buffer and then incubated for 60 min (37° C., 5% CO2) in 60 μl assay buffer containing 1 μM Fluo-4AM ester, 0.02% pluronic acid, and 1% BSA. The dye loading solution is then aspirated and cells are washed 3 times with 100 μl assay buffer. 30 μl of that same buffer is left in each well. Within the Fluorescent Imaging Plate Reader (FLIPR, Molecular Devices), test compounds are added to the plate in a volume of 25 μl, incubated for 5 min and finally 25 μl of agonist is added. Fluorescence is measured for each well at 1 second intervals for 5 minutes and the height of each fluorescence peak is compared to the height of the fluorescence peak induced by […] Ala-6,12 orexin-A with buffer in place of antagonist. For each antagonist, IC50 value (the concentration of compound needed to inhibit 50% of the agonist response) is determined. Alternatively, compound potency can be assessed by a radioligand binding assay (described in Bergman et. al. Bioorg. Med. Chem. Lett. 2008, 18, 1425-1430) in which the inhibition constant (Ki) is determined in membranes prepared from CHO cells expressing either the OX1 or OX2 receptor. The intrinsic orexin receptor antagonist activity of a compound which may be used in the present invention may be determined by these assays. The following tables show representative data for the compounds of the Examples as orexin receptor antagonists as determined by the foregoing assays wherein the hOX2 Ki is a measure of the ability of the test compound to inhibit the action of the human orexin-2 receptor and the hOX1R is a measure of the ability of the test compound to inhibit the action of the rat orexin-1 receptor.

hOX1 (orexin-1 receptor) = biological target: T2, hOX1 (orexin-1 receptor) (Homo sapiens, UniProt O43613); test: radioligand binding assay, OX1 receptor (hOX1 Bind hKi); settings: membranes from CHO cells expressing the OX1 receptor
T2 construct: expressed in transfected cells; host or cells: CHO cells (membranes)
T2 sequence (O43613 1-425): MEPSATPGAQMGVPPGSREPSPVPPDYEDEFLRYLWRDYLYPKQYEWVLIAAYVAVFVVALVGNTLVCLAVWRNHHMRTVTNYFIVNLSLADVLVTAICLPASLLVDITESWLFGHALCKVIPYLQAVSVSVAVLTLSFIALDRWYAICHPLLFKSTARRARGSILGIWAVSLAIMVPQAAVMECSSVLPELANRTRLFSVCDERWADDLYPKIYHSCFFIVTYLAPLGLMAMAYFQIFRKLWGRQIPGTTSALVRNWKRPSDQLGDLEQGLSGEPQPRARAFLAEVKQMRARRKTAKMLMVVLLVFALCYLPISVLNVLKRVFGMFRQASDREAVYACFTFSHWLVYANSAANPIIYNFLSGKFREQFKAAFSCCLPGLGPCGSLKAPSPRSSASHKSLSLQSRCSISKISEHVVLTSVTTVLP

Ki (human orexin-2 receptor) | Ki (hOX1 (orexin-1 receptor)) | SMILES
2830 nM | > 476 nM | Cc1ccc(-n2nccn2)c(C(=O)N2CCCCC2C#Cc2ccc3ccccc3c2)c1 (stereo not drawn) [Example 19, 1-{[5-methyl-2-(2H-1,2,3-triazol-2-yl)phenyl]carbonyl}-2-(naphthalen-2-ylethynyl)piperidine]
0.53 nM | 0.56 nM | C[C@@H]1CC[C@@H](C#Cc2ccccc2CO)CN1C(=O)c1ccccc1-n1nccn1 [Example 6, (2-{[(3S,6R)-6-methyl-1-{[2-(2H-1,2,3-triazol-2-yl)phenyl]carbonyl}piperidin-3-yl]ethynyl}phenyl)methanol]
32 nM | 108 nM | C[C@@H]1CC[C@@H](C#Cc2cncc(CO)c2)CN1C(=O)c1ccccc1-n1nccn1 [Example 11, (5-{[(3S,6R)-6-methyl-1-{[2-(2H-1,2,3-triazol-2-yl)phenyl]carbonyl}piperidin-3-yl]ethynyl}pyridin-3-yl)methanol]

From US8940898B2, “Piperidinyl alkyne orexin receptor antagonists” (Merck Sharp & Dohme Corp., priority 2011, dated 2015)
